Test results taken from patent US9775844B2, “Heterocyclic compounds and uses thereof” (Infinity Pharmaceuticals, Inc., priority 2014, dated 2017).
Where two headings read alike, the source gives them in different places.

Experiments:
[1] = system: monocytic iMCs in CT26 subcutaneous tumors; test: Flow cytometry of tumor-associated myeloid cells, CT26 subcutaneous tumors; type: in vivo, mouse; conditions: FIG. 38B
Experimental: Flow cytometry was performed to obtain a more extensive cellular subset analysis. In particular, the study examined T cell vs. Myeloid cells, Myeloid cell subsets, Regulatory vs. effector T cells, and Tumor markers vs. WBC (e.g., PD-L1 expression on tumor).
Different populations of tumor-associated myeloid cells can be identified by flow cytometry, e.g., monocytic immature myeloid cells (iMC),Granulocytic iMCs/Neutrophils, Tumor Associated Macrophages (TAMs), and Granulocytic MDSCs. The different populations, and panels for detecting MDSCs, are described in Cancer Discovery 2011; 1:54-67. Tumors may vary in their myeloid cell composition.

GSH Adduct Formation = type: in vitro ADME
[2] = system: suppression of spleen T cell proliferation by CT26 tumor cells; test: Ex vivo T cell proliferation assay with CT26 tumor cells (CFSE); type: cell-based, mouse; conditions: tumors from treated mice
Experimental: The duration of the study was 1 week under treatment. 5-6 week old female, Balb/c mice (Jackson Labs) implanted subcutaneously with 5×10^5 CT26 cells in 100 μl PBS. CT26 cells were cultured in RPMI supplemented with 10% FBS. Dosing commenced when tumors reached an average volume of 500-600 mm^3
For group 3 (αPD-L1), the mice were dosed once, IP, 200 ug (200 uL from 1 mg/ml stock).
Mice were monitored daily for adverse clinical effects. Body weights and tumor luminescent were measured two times per week. At the end of the study, tumors were harvested and cut into 3 parts; one piece for CTL killing assay, one piece for CSFE proliferation assay and one piece (split into two) for OCT/FFPE.
Spleens from 3 vehicle treated tumor bearing mice were physically dissociated in T cell media and passed through a 70 micron filter. After red cell lysis, the cells were pooled, brought up in PBS and stained with CFSE (invitrogen). After washing, these cells were brought up in 20 ml T cell media. Half the cells received Dynal mouse activator beads (CD3/CD28 crosslinking at a 1:1 […]). CD3/CD28 beads induce proliferation in splenocytes from tumor bearing mouse (data not shown).
The cells were treated with red cell lysis buffer, washed, and re-suspended in 10 ml T cell media. 2 mls of the each tumor cell suspension were plated into each of two 12 well plates. […]

LLC tumor = LLC tumor brei model; type: in vivo
phospho-AKT in T cells = test: Ex vivo whole blood stimulation of phospho-AKT in T cells of LLC-bearing mice; conditions: LLC-bearing mice treated with compound
PGP = PGP (Homo sapiens (Human), UniProt P08183); test: PGP efflux; type: in vitro ADME
Sequence of PGP (P08183 whole entry, species assumed): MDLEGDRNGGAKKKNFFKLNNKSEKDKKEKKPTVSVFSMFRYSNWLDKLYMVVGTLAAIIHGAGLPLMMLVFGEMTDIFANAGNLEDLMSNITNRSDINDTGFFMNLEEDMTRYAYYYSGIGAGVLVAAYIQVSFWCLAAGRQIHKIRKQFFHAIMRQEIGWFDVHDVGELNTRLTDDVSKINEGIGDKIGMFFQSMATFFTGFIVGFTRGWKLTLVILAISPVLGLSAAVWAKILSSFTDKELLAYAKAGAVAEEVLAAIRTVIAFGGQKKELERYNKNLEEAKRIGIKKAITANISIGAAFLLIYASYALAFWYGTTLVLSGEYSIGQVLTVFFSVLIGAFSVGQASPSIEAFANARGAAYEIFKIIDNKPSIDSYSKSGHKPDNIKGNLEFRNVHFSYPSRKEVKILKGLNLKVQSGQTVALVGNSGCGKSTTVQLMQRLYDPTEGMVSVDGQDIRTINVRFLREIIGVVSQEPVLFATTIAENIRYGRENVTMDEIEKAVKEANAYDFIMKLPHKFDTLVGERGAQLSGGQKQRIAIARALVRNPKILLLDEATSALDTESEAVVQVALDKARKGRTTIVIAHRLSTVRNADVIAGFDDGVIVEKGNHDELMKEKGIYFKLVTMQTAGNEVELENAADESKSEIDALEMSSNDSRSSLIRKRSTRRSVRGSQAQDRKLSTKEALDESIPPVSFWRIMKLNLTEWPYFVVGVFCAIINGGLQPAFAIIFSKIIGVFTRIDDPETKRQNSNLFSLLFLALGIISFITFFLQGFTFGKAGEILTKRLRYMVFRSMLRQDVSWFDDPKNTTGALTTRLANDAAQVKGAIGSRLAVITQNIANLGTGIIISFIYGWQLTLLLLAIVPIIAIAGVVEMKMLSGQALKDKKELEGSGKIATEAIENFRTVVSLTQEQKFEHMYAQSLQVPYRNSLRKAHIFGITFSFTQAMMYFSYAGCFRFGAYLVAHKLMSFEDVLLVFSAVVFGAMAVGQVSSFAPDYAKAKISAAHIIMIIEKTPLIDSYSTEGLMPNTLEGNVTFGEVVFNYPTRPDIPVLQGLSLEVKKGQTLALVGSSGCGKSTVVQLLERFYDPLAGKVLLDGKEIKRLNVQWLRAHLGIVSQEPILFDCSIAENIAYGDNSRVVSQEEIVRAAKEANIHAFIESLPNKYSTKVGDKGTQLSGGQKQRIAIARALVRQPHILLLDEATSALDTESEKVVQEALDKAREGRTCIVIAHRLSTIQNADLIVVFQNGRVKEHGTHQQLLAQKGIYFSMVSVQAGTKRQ

Cyp = Cyp Induction (activity and mRNA); type: in vitro ADME
[3] = Pharmacokinetics in dog, oral; type: in vivo; conditions: 5 mg/kg oral
Description: Compound BB's oral exposure is high in rat, dog and monkey. Good oral bioavailability and low clearance in rodent and non-rodent animal species results in high oral exposure.

[4] = Oral PK in the rat LPS studies (free plasma concentration); type: in vivo; conditions: plasma, read-out: Free Plasma Conc
Experimental: This study also includes assessment of the exposure to the compounds in plasma and lung tissues.
Ref C is budesonide p.o. The compound was administered p.o. and about 1 hour later, LPS was administered intra-tracheally and plasma was collected. After about 5 hours, plasma and bronchoalveolar lavage samples were collected.

GL-261 = GL-261 glioma model with or without temozolomide; type: in vivo, mouse
Experimental: TMZ was dosed IP 1×/day for 7 days.
Animals: C57 Albino mice (male) from Jackson Labs, n=80. Parameters Evaluated:
In life: Mice were dosed QD with Compound BB. Temozolomide was dosed QD IP, for 7 days. Tumor measurements and bodyweights were taken 2×/week, but caliper and xenogen measurements.
End point analysis: Tumors were cut in half. One half was cut in half again with 1/2 fixed in 10% NBF the other was frozen in OCT for frozen sections. The remaining half was processed to single cell suspention and evaluated by FACS.
PD satilite group—8 mice from the TMZ treated mice and 8 mice from the vehicle treated mice were sacrificed on day 7 post treatment. Tumors were processed to single cell suspention and evaluated by FACS.

4T1 breast cancer = test: Subcutaneous 4T1 breast cancer model; type: in vivo

Structure (SMILES): C[C@H](NC(=O)c1c(N)nn2cccnc12)c1cc2cccc(C#Cc3cnn(C)c3)c2c(=O)n1-c1ccccc1 [Compound BB]
- monocytic iMCs [1]: decreased
- GSH Adduct Formation (GSH Adduct Formation): Neg
- suppression of T cell proliferation by cells derived from CT26 mouse tumors [2]: can release the suppression
- CD206+M2 polarized suppressive macrophages (LLC tumor): reduces
- TAMs (LLC tumor): decreased
- ex vivo whole blood stimulation of phospho-AKT in T cells (phospho-AKT in T cells): inhibits
- PGP efflux@ 10 uM (PGP): No
- Cyp Induction @ 10 uM (Cyp): Neg (activity and mRNA)
- oral exposure (plasma concentrations within 24 hours) [3]: high
- concentration at 1.5 h ([4]; oral, p.o. 0.5 mg/kg, 1.5h (time of LPS challenge)): 2.1 nM
- concentration at […] ([4]; oral, p.o. 0.5 mg/kg, 5.5h (approximately 4 hours post LPS challenge)): 2.6 nM
- concentration at 1.5 h ([4]; po, p.o. 1.5 mg/kg, 1.5h): 5.2 nM
- concentration at […] ([4]; po, p.o. 1.5 mg/kg, 5.5h): 5.4 nM
- concentration at 1.5 h ([4]; po, p.o. 5 mg/kg, 1.5h): 22.6 nM
- concentration at […] ([4]; po, p.o. 5 mg/kg, 5.5h): 24.7 nM
- tumor volume, GL-261, compared to vehicle (GL-261; 15 mg/kg QD PO following TMZ @ 1 mg/kg): significant reduction in tumor volume
- tumor volume, GL-261, compared to vehicle (GL-261; treated from the start of treatment, 15 mg/kg QD PO): significant reduction in tumor volume
- single agent activity (4T1 breast cancer): demonstrated single agent activity
- tumor growth (4T1 breast cancer; co-administration with docetaxel, paclitaxel, or 5-FU): achieved a further reduction in tumor growth
